This assay has as its system eggs of C. felis. The assay can be described thus: Eggs and larvae of C. felis, egg to adult development assay (Test A, Test Example 1). Type of assay: in vivo. The conditions noted are these: 30 eggs x 3 replicates, 28 days. The protocol:
Eggs and Larvae of C. felis—Egg to Adult Development Assay A larval support media was prepared consisting of 1 g dried bovine blood, 1 g dog biscuit and 5 g of fine sand. Two grams of the larval support media were placed into a 30 mL container for treatment with the test compound and drying. The test compound (3-bromo-N-[4-chloro-2-methyl-6-(methylcarbamoyl)phenyl]-1-(3-chloropyridin-2-yl)-1H-pyrazole-5-carboxamide) was prepared in acetone and serially diluted prior to testing. The concentrations used were as follows: 1 ug/uL, 0.5, 0.25, 0.125, 0.0625 ug/uL. 30 eggs of C. felis were placed into the culturing medium. Each concentration was replicated 3 times giving a total of 90 eggs per dose level. The untreated control was treated with acetone only. The containers were placed into a temperature and humidity controlled room and maintained for 28 days. After the incubation period had elapsed the containers were placed into a freezer for 1 hour. The adults and pupae were counted and % of adults and pupae that developed at each dose level was calculated. The activity was compared to Methoprene.

[1] abbreviates: concentration 0.0625 (ug/uL) in treated larval support media.
The mark [2] stands for this setting: concentration 0.125 (ug/uL) in treated larval support media.
[3] abbreviates: concentration 0.25 (ug/uL) in treated larval support media.
Where [4] appears, read: concentration 0.5 (ug/uL) in treated larval support media.
The mark [5] stands for this setting: concentration 1.0 (ug/uL) in treated larval support media.

The values below come from patent US20090036407A1, “FLEA CONTROL METHOD” (priority 2007, published 2009).

The structures appear in SMILES notation.

On to `COC(C)(C)CCC[C@H](C)C/C=C/C(C)=C/C(=O)OC(C)C` (racemic) [Methoprene], for which the “% eggs developed into adults” value reads like this: under setting [1], 14.4%; under setting [2], 3.3%; under setting [3], 1.1%; under setting [4], 0.0%; under setting [5], 0.0%.

As for `CNC(=O)c1cc(Cl)cc(C)c1NC(=O)c1cc(Br)nn1-c1ncccc1Cl` [Test Compound, 3-bromo-N-[4-chloro-2-methyl-6-(methylcarbamoyl)phenyl]-1-(3-chloropyridin-2-yl)-1H-pyrazole-5-carboxamide], the “% eggs developed into adults” value under setting [1] is 18.9%; the “% eggs developed into adults” value under setting [2] is listed as 0.0%; the “% eggs developed into adults” value under setting [3] was 0.0%; the “% eggs developed into adults” value under setting [4] is given as 0.0%; the “% eggs developed into adults” value under setting [5] amounted to 0.0%.
